Results from PubChem BioAssay AID256 (DTP/NCI, 2004).
“And” between values parts separate entries of the source, which are not always exact repeats. Equal values may be shown once. Inconclusive results and toxic doses are left out. Rule for the calls: active = survival T/C of 150% or more; inactive = T/C below 125% in these data.

System: CD2F1 mice, L1210 leukemia ip, survival T/C
Test: NCI In Vivo Anticancer Drug Screen. Data for tumor model L1210 Leukemia (intraperitoneal) in CD2F1 (CDF1) mice
Details: higher = longer survival
Procedure, shortened: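 Vehicle-treated tumor-bearing mice served as controls (C) for compound-treated mice (T). Reported figure is T divided by C.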

[1] = endpoint: mean survival time, dose: 75.0 mg/kg/injection, schedule: Q01DX001 (ip), vehicle: saline
[2] = endpoint: mean survival time, dose: 100.0 mg/kg/injection, schedule: Q04DX003 (ip), vehicle: Klucel (hydroxypropylcellulose) (HPC)
[3] = endpoint: mean survival time, dose: 100.0 mg/kg/injection, schedule: Q01DX009 (ip), vehicle: saline with Tween-80
[4] = endpoint: mean survival time, dose: 200.0 mg/kg/injection, schedule: Q01DX009 (ip), vehicle: saline with Tween-80
[5] = endpoint: mean survival time, dose: 400.0 mg/kg/injection, schedule: Q01DX009 (ip), vehicle: saline with Tween-80
[6] = endpoint: mean survival time, dose: 100.0 mg/kg/injection, schedule: Q01DX001 (ip), vehicle: saline
[7] = endpoint: mean survival time, dose: 400.0 mg/kg/injection, schedule: Q04DX003 (ip), vehicle: saline
[8] = endpoint: mean survival time, dose: 100.0 mg/kg/injection, schedule: Q04DX002 (ip), vehicle: saline with Tween-80
[9] = endpoint: mean survival time, dose: 50.0 mg/kg/injection, schedule: Q01DX009 (ip), vehicle: saline with Tween-80
[10] = endpoint: mean survival time, dose: 100.0 mg/kg/injection, schedule: Q04DX003 (ip), vehicle: saline with Tween-80
[11] = endpoint: mean survival time, dose: 200.0 mg/kg/injection, schedule: Q04DX003 (ip), vehicle: saline with Tween-80
[12] = endpoint: mean survival time, dose: 100.0 mg/kg/injection, schedule: Q04DX003 (ip), vehicle: saline
[13] = endpoint: mean survival time, dose: 200.0 mg/kg/injection, schedule: Q04DX003 (ip), vehicle: saline

Measured: T/C

CC(C)CCNCCO
inactive: [1] 102 % of control | endpoint: mean survival time, dose: 150.0 mg/kg/injection, schedule: Q01DX001 (ip), vehicle: saline 102 % of control

NNC(=O)c1ccc(N)cc1
inactive: [2] 95 % of control

COC(=O)C1C=CCC=C1OC (stereo not given)
inactive: [3] 113 % of control | [4] 104 % of control | [5] 109 % of control

O=c1c(Cl)c(Cl)cnn1-c1ccc([N+](=O)[O-])cc1[N+](=O)[O-]
inactive: endpoint: mean survival time, dose: 100.0 mg/kg/injection, schedule: Q01DX001 (ip), vehicle: other 88 % of control | endpoint: mean survival time, dose: 200.0 mg/kg/injection, schedule: Q01DX001 (ip), vehicle: other 88 % of control | endpoint: mean survival time, dose: 400.0 mg/kg/injection, schedule: Q01DX001 (ip), vehicle: other 94 % of control

COc1ccc(/C=C(\C#N)c2ccc(C)cc2)cc1OC
inactive: [3] 101 % of control | [4] 108 % of control | [5] 107 % of control

O=C(O)O.O=C(O)O.O=C(O)O.[Co]
inactive: [6] 102 % of control | [7] 97 % of control

COP(=O)(NC(C)=O)OC
inactive: endpoint: mean survival time, dose: 50.0 mg/kg/injection, schedule: Q04DX002 (ip), vehicle: saline 87 % of control | endpoint: mean survival time, dose: 100.0 mg/kg/injection, schedule: Q04DX002 (ip), vehicle: saline 93 % of control | endpoint: mean survival time, dose: 200.0 mg/kg/injection, schedule: Q04DX002 (ip), vehicle: saline 93 % of control | endpoint: mean survival time, dose: 400.0 mg/kg/injection, schedule: Q04DX002 (ip), vehicle: saline 96 % of control

CC(Sc1ccccc1)C(=O)OC1C=CCCC1 (stereo not given)
inactive: [8] 98 % of control | endpoint: mean survival time, dose: 200.0 mg/kg/injection, schedule: Q04DX002 (ip), vehicle: saline with Tween-80 106 % of control | endpoint: mean survival time, dose: 400.0 mg/kg/injection, schedule: Q04DX002 (ip), vehicle: saline with Tween-80 98 % of control

O=C(CC(=O)Nc1ccc([N+](=O)[O-])cc1)Nc1ccc([N+](=O)[O-])cc1
inactive: [3] 91 % of control | [4] 86 % of control | [5] 89 % of control

CC(=O)OCCCC(C)Nc1ccnc2cc(Cl)ccc12 (stereo not given)
inactive: [9] 100 % of control | [3] 96 % of control | [10] 96 % of control | [4] 96 % of control | [11] 98 % of control

COC(=O)c1c(CC#N)ncn1C1CC(OC(=O)c2ccc(C)cc2)C(COC(=O)c2ccc(C)cc2)O1 (stereo not given)
inactive: endpoint: median survival time, dose: 9.88 mg/kg/injection, schedule: Q01DX005 (ip), vehicle: water 101 % of control | endpoint: median survival time, dose: 19.75 mg/kg/injection, schedule: Q01DX005 (ip), vehicle: water 96 % of control | endpoint: median survival time, dose: 39.5 mg/kg/injection, schedule: Q01DX005 (ip), vehicle: water 96 % of control | endpoint: median survival time, dose: 79.0 mg/kg/injection, schedule: Q01DX005 (ip), vehicle: water 97 % of control | endpoint: median survival time, dose: 158.0 mg/kg/injection, schedule: Q01DX005 (ip), vehicle: water 100 % of control

Cc1ccc(S(=O)(=O)ON/N=C2\C(=O)C3CCC2C3)cc1 (stereo not given)
inactive: endpoint: mean survival time, dose: 25.0 mg/kg/injection, schedule: Q04DX002 (ip), vehicle: saline with Tween-80 100 % of control | endpoint: mean survival time, dose: 50.0 mg/kg/injection, schedule: Q04DX002 (ip), vehicle: saline with Tween-80 96 % of control | [8] 112 % of control

COP1(=S)OCC2OC(n3cc(C)c(=O)[nH]c3=O)CC2O1 (stereo not given)
inactive: endpoint: mean survival time, dose: 12.5 mg/kg/injection, schedule: Q01DX005 (ip), vehicle: distilled water + Tween-80 101 % of control | endpoint: mean survival time, dose: 25.0 mg/kg/injection, schedule: Q01DX005 (ip), vehicle: distilled water + Tween-80 102 % of control | endpoint: mean survival time, dose: 50.0 mg/kg/injection, schedule: Q01DX005 (ip), vehicle: distilled water + Tween-80 102 % of control | endpoint: mean survival time, dose: 100.0 mg/kg/injection, schedule: Q01DX005 (ip), vehicle: distilled water + Tween-80 102 % of control | endpoint: mean survival time, dose: 200.0 mg/kg/injection, schedule: Q01DX005 (ip), vehicle: distilled water + Tween-80 98 % of control

CCOC(=O)C(CC)CO (stereo not given)
inactive: [12] 105 % of control | [13] 103 % of control | [7] 103 % of control

CC(C)=CC(=O)CC(O)(C(F)(F)F)C(F)(F)Cl (stereo not given)
inactive: [2] 98 % of control | endpoint: mean survival time, dose: 200.0 mg/kg/injection, schedule: Q04DX003 (ip), vehicle: Klucel (hydroxypropylcellulose) (HPC) 93 % of control

O=C(O)c1cc2ccccc2s1
inactive: [6] 98 % of control | endpoint: mean survival time, dose: 200.0 mg/kg/injection, schedule: Q01DX001 (ip), vehicle: saline 96 % of control | endpoint: mean survival time, dose: 400.0 mg/kg/injection, schedule: Q01DX001 (ip), vehicle: saline 92 % of control

CCOC(=N)c1cn(C2OC(CO)C(O)C2O)c2nc[nH]c(=O)c12 (stereo not given)
inactive: [1] 119 % of control

COCC(O)CN1CCN(c2cccc3c2CCCC3)CC1 (stereo not given)
inactive: endpoint: mean survival time, dose: 100.0 mg/kg/injection, schedule: Q01DX001 (ip), vehicle: saline with Tween-80 97 % of control | endpoint: mean survival time, dose: 200.0 mg/kg/injection, schedule: Q01DX001 (ip), vehicle: saline with Tween-80 100 % of control

OCC1OC(n2cnc3c(Cl)ncnc32)C(O)C1O (stereo not given)
inactive: endpoint: mean survival time, dose: 12.5 mg/kg/injection, schedule: Q01DX009 (ip), vehicle: saline 86 % of control | endpoint: mean survival time, dose: 25.0 mg/kg/injection, schedule: Q01DX009 (ip), vehicle: saline 93 % of control | endpoint: mean survival time, dose: 50.0 mg/kg/injection, schedule: Q01DX009 (ip), vehicle: saline 93 % of control | endpoint: mean survival time, dose: 62.0 mg/kg/injection, schedule: Q01DX Z (ip), vehicle: carboxymethylcellulose (CMC) 97 % of control | endpoint: mean survival time, dose: 100.0 mg/kg/injection, schedule: Q01DX009 (ip), vehicle: saline 98 % of control | endpoint: mean survival time, dose: 125.0 mg/kg/injection, schedule: Q01DX Z (ip), vehicle: carboxymethylcellulose (CMC) 102 % of control | endpoint: mean survival time, dose: 200.0 mg/kg/injection, schedule: Q01DX009 (ip), vehicle: saline 92 % of control | endpoint: mean survival time, dose: 250.0 mg/kg/injection, schedule: Q01DX Z (ip), vehicle: carboxymethylcellulose (CMC) 100 % of control | endpoint: mean survival time, dose: 400.0 mg/kg/injection, schedule: Q01DX009 (ip), vehicle: saline 98 % of control | endpoint: mean survival time, dose: 500.0 mg/kg/injection, schedule: Q01DX Z (ip), vehicle: carboxymethylcellulose (CMC) 96 % of control | endpoint: median survival time, dose: 62.5 mg/kg/injection, schedule: Q01DX009 (ip), vehicle: saline 94 % of control and 100 % of control | endpoint: median survival time, dose: 125.0 mg/kg/injection, schedule: Q01DX009 (ip), vehicle: saline 100 % of control | endpoint: median survival time, dose: 250.0 mg/kg/injection, schedule: Q01DX009 (ip), vehicle: saline 88 % of control and 100 % of control | endpoint: median survival time, dose: 500.0 mg/kg/injection, schedule: Q01DX009 (ip), vehicle: saline 88 % of control

CC(=O)NNC(=O)c1ccc2ccccc2n1
inactive: [9] 96 % of control | endpoint: mean survival time, dose: 50.0 mg/kg/injection, schedule: Q04DX003 (ip), vehicle: saline with Tween-80 107 % of control | [3] 104 % of control | [10] 103 % of control | [4] 111 % of control | [11] 101 % of control

C/C(=N\N=C(/C)c1cccs1)c1cccs1
inactive: endpoint: median survival time, dose: 25.0 mg/kg/injection, schedule: Q04DX002 (ip), vehicle: saline with Tween-80 90 % of control | endpoint: median survival time, dose: 50.0 mg/kg/injection, schedule: Q04DX002 (ip), vehicle: saline with Tween-80 90 % of control | endpoint: median survival time, dose: 100.0 mg/kg/injection, schedule: Q04DX002 (ip), vehicle: saline with Tween-80 100 % of control | endpoint: median survival time, dose: 200.0 mg/kg/injection, schedule: Q04DX002 (ip), vehicle: saline with Tween-80 90 % of control

CC(=O)CCCSCCO
inactive: [12] 101 % of control | [13] 97 % of control | [7] 101 % of control
